# Patent US20260374773A1, “MULTI-CYCLIC IRAK AND FLT3 INHIBITING COMPOUNDS AND USES THEREOF” (CHILDREN'S HOSPITAL MEDICAL CENTER, priority 2022, published 2026)
# How the values were obtained:
# MOLM14 (D835Y) cells = test: Combination drug screening with venetoclax, Cell Titer Glo, MOLM14 (D835Y); format: cell-based; parameters: key: relative excess HSA score; more negative = greater synergy; settings: compound 0-0.5 μM, venetoclax 0-20 μM, 10 × 10, 48 h, negative = synergy
# Description: (§1) Combination drug therapy has the potential to produce enhanced effects with lower side effects not obtained using either agent alone, or beyond the additive effect of the different concentrations of the two different agents. To determine whether enhanced effects are observed in different drug combinations, combination drug screening was performed as previously described (Mathews-Griner, L. A. et al., Proc. Nat. Acad. Sci., 2014, 111:2349-2354; Lin, G. L. et al., Sci. Trans. Med., 2019, 11: eaaw0064). Briefly, 10 nL of compounds were acoustically dispensed into 1536-well white polystyrene tissue culture-treated plates with an Echo 550 acoustic liquid handler (Labcyte). Cells were then added to compound-containing plates at a density of 500-cells/well in 5 μL of medium. A 10-point custom concentration range was used for all listed drugs in a 10×10 matrix. Plates were incubated for 48 hours at standard incubator conditions covered by a stainless steel gasketed lid to prevent evaporation. 48 hours post compound addition, 3 μL of Cell Titer Glo (Promega) were added to each well and plates were incubated at room temperature for 15 minutes with the stainless-steel lid in place. Luminescence readings were taken using a Viewlux imager (PerkinElmer) with a 2 second exposure time per plate.
# (§2) Each compound was studied in combination with venetoclax at two concentration ranges of compound and venetoclax, respectively (for a total of 4 combination dose-response curves). The dose combinations that yielded the optimal synergy score, measured as excess HSA, which are reported in Tables 23 and 24 for the FLT3 mutant cell line MOLM14 (D835Y) and the FLT3 WT cell line THP1, respectively.
# (§3) Table 23 provides combination outcomes for representative compounds with venetoclax in the Cell Titer Glo assay in MOLM14 (D835Y) cells (a FLT3 mutant cell line) at 48 hours. The table provides relative excess HSA values for compounds of the disclosure used in combination with venetoclax compared to gilteritinib hemifumarate used in combination with venetoclax. A negative excess HSA score illustrates that the drug combination is better than either drug alone, wherein greater synergy is observed at larger negative values of the excess HSA score.
# (§4) Excess HSA is a measure of synergy vs. additivity or antagonism, wherein a negative excess HSA value is indicative of synergy. More information on excess HSA scores can be found in Vlot, Anna H. C. et al., Drug Discovery Today, 2019, 24(12):2286-2298. […] However, different methodologies may yield different numerical scores, and different definitions of what constitutes a deviation from mere additivity vs true drug synergy. The large negative excess HSA values provided in Tables 23 and 24 illustrate that multiple members of this structural class synergize with venetoclax. The degree to which combination therapy has to potential to produce enhanced effects with lower side effects not obtained using either agent alone, or beyond the additive effect of the different concentrations of the two different agents depends on the nature of the drugs used in the combination, and the specific doses/concentrations at which they are ultimately used in the therapeutic regimen. A negative excess HSA score illustrates that the drug combination is better than either drug alone (at the concentrations being studied). […] However, the utility in certain drug combinations vs. others should not be distinguished based on cutoffs between excess HSA scores, because the score itself is only a relative indicator that is completely dependent on experimental design and is not an absolute number. Furthermore, the concept of what constitutes clinically meaningful drug synergy is something that is still being debated, not only between pharmacologists and physicians, but amongst pharmacologists themselves. […]
# THP1 cells = test: Combination drug screening with venetoclax, Cell Titer Glo, THP1; format: cell-based; settings: compound 0-20 μM, venetoclax 0-2 μM, 10 × 10, 48 h, negative = synergy
# Description: as §1, §2
# as §3, with “24” for “23”, “THP1 (FLT3 wild type)” for “MOLM14 (D835Y)”, “cells” for “cells (a FLT3 mutant cell line)”
# as §4
# Menin-KMT2A (MLL) = settings: pre-clinical studies; cited from earlier work
# E-selectin = settings: with chemotherapy; AML mouse models; cited from earlier work
# AML cell lines = settings: combined with a concentration of an exemplary IRAK inhibitor; cited from earlier work
# [1] = system: subjects with myelodysplastic syndrome; settings: after receiving azacitidine; cited from earlier work
structure (smiles),measurement,setting,value
"CCc1nc(C(N)=O)c(Nc2ccc(N3CCC(N4CCN(C)CC4)CC3)c(OC)c2)nc1NC1CCOCC1 [Gilteritinib hemifumarate, Gilteritinib, reference compound]",Excess HSA,MOLM14 (D835Y) cells,−1556
same,Excess HSA,THP1 cells,−1626
CCN(C(=O)c1cc(F)ccc1Oc1cncnc1N1CC2(CCN(C[C@H]3CC[C@H](NS(=O)(=O)CC)CC3)CC2)C1)C(C)C [SNDX-5613],pharmacokinetic properties,Menin-KMT2A (MLL),excellent pharmacokinetic properties
same,toxicity profile,Menin-KMT2A (MLL),low toxicity profiles
CC[C@H]1C[C@@H](C(=O)NCCNC(=O)CCOCCOCCOCCOCCOCCOCCOCCOCCOCCOCCOCCOC)C[C@@H](O[C@@H]2O[C@H](CO)[C@H](O)[C@H](O[C@@H](CC3CCCCC3)C(=O)O)[C@H]2NC(C)=O)[C@@H]1O[C@@H]1O[C@@H](C)[C@@H](O)[C@@H](O)[C@@H]1O [Uproleselan],duration of mouse survival over chemotherapy alone,E-selectin,doubling the duration of mouse survival over chemotherapy alone
CC1(C)CCC(CN2CCN(c3ccc(C(=O)NS(=O)(=O)c4ccc(NCC5CCOCC5)c([N+](=O)[O-])c4)c(Oc4cnc5[nH]ccc5c4)c3)CC2)=C(c2ccc(Cl)cc2)C1 [venetoclax],increase of potency of venetoclax,AML cell lines,~ 50 -fold
CNc1nc(NC2CCN(Cc3ccc4c(cc(C#N)n4C[C@H](C)N4CCN(S(C)(=O)=O)CC4)c3C)CC2)c2cc(CC(F)(F)F)sc2n1 [KO-539],pharmacokinetic properties,Menin-KMT2A (MLL),excellent pharmacokinetic properties
same,toxicity profile,Menin-KMT2A (MLL),low toxicity profiles
Nc1ncn([C@@H]2O[C@H](CO)[C@@H](O)[C@H]2O)c(=O)n1 [azacitidine],patients who required blood transfusions and no longer needed them,[1],about two-thirds
